Laboratory results taken from patent US20150291565A1, “INDOLE COMPOUNDS AND THEIR USE AS ANTIMICROBIALS” (Memorial Sloan-Kettering Cancer Center, priority 2012, published 2015).
Converted amounts (≈) assume the structure as drawn. Like-named read-outs stand apart in the source and are kept apart here.

Legend:
MRSA = assay: Disk diffusion assay, zone of inhibition, MRSA; format: cell-based, Staphylococcus aureus; conditions: disk diffusion zone of inhibition
M. smegmatis (mc2155) = assay: Disk diffusion assay, zone of inhibition, M. smegmatis; format: cell-based; conditions: disk diffusion zone of inhibition
[1] = tested on: S. aureus ATCC 29213 (MSSA); assay: Broth dilution MIC, S. aureus ATCC 29213; format: cell-based; conditions: Staphylococcus aureus
[2] = tested on: S. aureus ATCC 33591 (MRSA); assay: Broth dilution MIC, S. aureus ATCC 33591; format: cell-based; conditions: for MIC: Staphylococcus aureus
S. aureus BAA-39 (MDR) = assay: Broth dilution MIC, S. aureus BAA-39; format: cell-based; conditions: for MIC: Staphylococcus aureus, BAA39
[3] = tested on: S. pneumoniae ATCC 6301 (PSSP); assay: Broth dilution MIC, S. pneumoniae ATCC 6301; format: cell-based; conditions: Streptococcus pneumoniae
[4] = tested on: S. pneumoniae ATCC 700674 (PRSP); assay: Broth dilution MIC, S. pneumoniae ATCC 700674; format: cell-based; conditions: Streptococcus pneumoniae
[5] = tested on: E. faecalis ATCC 29212 (VRE); assay: Broth dilution MIC, E. faecalis ATCC 29212; format: cell-based
[6] = tested on: E. faecium ATCC 700221 (VRE); assay: Broth dilution MIC, E. faecium ATCC 700221; format: cell-based
E. faecium CT-26 = assay: Broth dilution MIC, E. faecium CT-26; format: cell-based; conditions: Enterococcus faecium
E. coli ECM 1694 = assay: Broth dilution MIC, E. coli ECM 1694; format: cell-based; conditions: Escherichia coli
E. coli ATCC 25922 = assay: Broth dilution MIC, E. coli ATCC 25922; format: cell-based; conditions: Escherichia coli
K. pneumoniae ATCC 13883 = assay: Broth dilution MIC, K. pneumoniae ATCC 13883; format: cell-based; conditions: Klebsiella pneumoniae
K. pneumoniae ATCC 51503 = assay: Broth dilution MIC, K. pneumoniae ATCC 51503; format: cell-based; conditions: Klebsiella pneumoniae
P. aeruginosa ATCC 9027 = assay: Broth dilution MIC, P. aeruginosa ATCC 9027; format: cell-based; conditions: Pseudomonas aeruginosa
C. albicans ATCC 14053 = assay: Broth dilution MIC, C. albicans ATCC 14053; format: cell-based; conditions: Candida albicans, ATCC14053; Table 1; range 64 down to 0.12 μg/ml
Protocol: In vitro Anti-bacterial & Anti-fungal Activity Assay: All test compounds were prepared as 6.4 mg/ml stock solutions in DMSO and further diluted according to the NCCLS M7-A6 (Page 5) document with sterile water or appropriate diluent. A working stock of 256 μg/ml was used to do 1:2 serial dilutions in 96-well plates. […] The inoculums were prepared by making a direct sterile water suspension of isolated colonies from 18 to 24 hr agar plates for all organisms (Mueller Hinton, Blood Agar or SDA plates). Each bacterial suspension was adjusted to read between 0.09 and 0.11 absorbance at 620 nm. […] These were further diluted 1/100 in appropriate broth for inoculating the 96-well plates. The C. albicans suspension was adjusted to read between 70 and 75% Transmittance at 530 nm and then diluted 1/500 in RPMI+MOPS broth. All aerobic bacterial and fungal plates were incubated for 18 hrs. at 35° C. […] Plates were read using a Beckman Automated Plate Reader at 650 nm. Readings were confirmed by visual examination of plates. (See Table 1, Table 2, Table 3, and Table 4). […] It is important to note that positive results against C. albicans are often indicative of broad spectrum antifungal activity, while negative results are not necessarily conclusory of a lack of activity against other fungus.

[7] = Table 1, range 64 down to 0.12 μg/ml, read-out: MIC S. aureus ATCC 29213
[8] = Table 2, broth dilution MIC in ug/ml, read-out: MIC S aureus ATCC 29213 MSSA
[9] = Table 1, range 64 down to 0.12 μg/ml, read-out: MIC S. aureus ATCC 33591
[10] = Table 2, broth dilution MIC in ug/ml, read-out: MIC S aureus ATCC 33591 MRSA
[11] = Table 1, range 64 down to 0.12 μg/ml, read-out: MIC S. aureus BAA-39
[12] = Table 2, broth dilution MIC in ug/ml, read-out: MIC S aureus BAA-39 MDR
[13] = ATCC6301, Table 1, range 64 down to 0.12 μg/ml, read-out: MIC S. pneumoniae ATCC 6301
[14] = ATCC6301, Table 2, broth dilution MIC in ug/ml, read-out: MIC S pneumonia ATCC 6301 PSSP
[15] = Table 1, range 64 down to 0.12 μg/ml, read-out: MIC S. pneumoniae ATCC 700674
[16] = Table 2, broth dilution MIC in ug/ml, read-out: MIC S pneumonia ATCC 700674 PRSP
[17] = Table 2, broth dilution MIC in ug/ml, read-out: MIC E faecalis ATCC 29212 VRE
[18] = Enterococcus faecium, Table 1, range 64 down to 0.12 μg/ml, read-out: MIC E. faecium ATCC 700221
[19] = Table 2, broth dilution MIC in ug/ml, read-out: MIC E faecium ATCC 700221 VRE
[20] = CT26, Table 1, range 64 down to 0.12 μg/ml, read-out: MIC E. faecium CT-26
[21] = CT26, Table 2, broth dilution MIC in ug/ml, read-out: MIC E faecium CT-25
[22] = ECM1694, Table 1, range 64 down to 0.12 μg/ml, read-out: MIC E. coli ECM 1694
[23] = ECM1694, Table 2, broth dilution MIC in ug/ml, read-out: MIC E. coli ECM 1693
[24] = ATCC 25921 / ATCC 25922, Table 2, broth dilution MIC in ug/ml, read-out: MIC E. coli ATCC 25921
[25] = ATCC25922, Table 1, range 64 down to 0.12 μg/ml, read-out: MIC E. coli ATCC 25922
[26] = ATCC13883, Table 1, range 64 down to 0.12 μg/ml, read-out: MIC K. pneumoniae ATCC 13883
[27] = ATCC13883, Table 2, broth dilution MIC in ug/ml, read-out: MIC K pneumonia ATCC 13883
[28] = ATCC51503, Table 1, range 64 down to 0.12 μg/ml, read-out: MIC K. pneumoniae ATCC 51503
[29] = ATCC51503, Table 2, broth dilution MIC in ug/ml, read-out: MIC K pneumonia ATCC 51503
[30] = ATCC 9026 / ATCC 9027, Table 2, broth dilution MIC in ug/ml, read-out: MIC P aeruginosa ATCC 9026
[31] = ATCC9027, Table 1, range 64 down to 0.12 μg/ml, read-out: MIC P. aeruginosa ATCC 9027

c1ccc(-c2ccc(Nc3ccc(-c4cc5ccc(C6=NCCN6)cc5[nH]4)cc3)cc2)nc1 [SKI-12]
Zone Size MRSA (MRSA): 10 mm | Zone Size M. smegmatis (M. smegmatis (mc2155)): 12 mm | MIC ([1]; Table 3, starting at 4 μg/ml, read-out: MIC S. aureus ATCC 29213): 1 µg/mL (≈ 2.33 µM) | MIC [1, 7]: 1 µg/mL (≈ 2.33 µM) | MIC [1, 8]: 1 µg/mL (≈ 2.33 µM) | MIC [2, 9]: 1 µg/mL (≈ 2.33 µM) | MIC [2, 10]: 1 µg/mL (≈ 2.33 µM) | MIC S. aureus ATCC 33591 ([2]; Table 3, starting at 4 μg/ml): 1 µg/mL (≈ 2.33 µM) | MIC (S. aureus BAA-39 (MDR); [11]): 1 µg/mL (≈ 2.33 µM) | MIC (S. aureus BAA-39 (MDR); [12]): 1 µg/mL (≈ 2.33 µM) | MIC S. aureus BAA-39 (S. aureus BAA-39 (MDR); Table 3, starting at 4 μg/ml): 1 µg/mL (≈ 2.33 µM) | MIC [3, 13]: ≤ 0.12 µg/mL | MIC [3, 14]: 0.12 µg/mL (≈ 0.279 µM) | MIC ([3]; ATCC6301, Table 3, starting at 4 μg/ml, read-out: MIC S. pneumoniae ATCC 6301): 0.12 µg/mL (≈ 0.279 µM) | MIC [4, 15]: ≤ 0.12 µg/mL | MIC [4, 16]: 0.12 µg/mL (≈ 0.279 µM) | MIC ([4]; Table 3, starting at 4 μg/ml, read-out: MIC S. pneumoniae ATCC 700674): 0.12 µg/mL (≈ 0.279 µM) | MIC ([5]; Enterococcus faecalis, Table 3, starting at 4 μg/ml, read-out: MIC E. faecalis ATCC 29212): 0.25 µg/mL (≈ 0.582 µM) | MIC [5, 17]: 0.25 µg/mL (≈ 0.582 µM) | MIC [6, 18]: ≤ 0.12 µg/mL | MIC ([6]; Enterococcus faecium, Table 3, starting at 4 μg/ml, read-out: MIC E. faecium ATCC 700221): 0.12 µg/mL (≈ 0.279 µM) | MIC [6, 19]: 0.12 µg/mL (≈ 0.279 µM) | MIC (E. faecium CT-26; [20]): ≤ 0.12 µg/mL | MIC (E. faecium CT-26; [21]): 0.12 µg/mL (≈ 0.279 µM) | MIC (E. faecium CT-26; CT26, Table 3, starting at 4 μg/ml, read-out: MIC E. faecium CT-26): 0.12 µg/mL (≈ 0.279 µM) | MIC (E. coli ECM 1694; [22]): 4 µg/mL (≈ 9.31 µM) | MIC (E. coli ECM 1694; [23]): 4 µg/mL (≈ 9.31 µM) | MIC (E. coli ECM 1694; ECM1694, Table 3, starting at 4 μg/ml, read-out: MIC E. coli ECM 1694): 4 µg/mL (≈ 9.31 µM) | MIC (E. coli ATCC 25922; [24]): 4 µg/mL (≈ 9.31 µM) | MIC (E. coli ATCC 25922; [25]): 4 µg/mL (≈ 9.31 µM) | MIC (K. pneumoniae ATCC 13883; [26]): 8 µg/mL (≈ 18.6 µM) | MIC (K. pneumoniae ATCC 13883; [27]): 8 µg/mL (≈ 18.6 µM) | MIC (K. pneumoniae ATCC 51503; [28]): 8 µg/mL (≈ 18.6 µM) | MIC (K. pneumoniae ATCC 51503; [29]): 8 µg/mL (≈ 18.6 µM) | MIC (P. aeruginosa ATCC 9027; [30]): 32 µg/mL (≈ 74.5 µM) | MIC (P. aeruginosa ATCC 9027; [31]): 32 µg/mL (≈ 74.5 µM) | MIC (C. albicans ATCC 14053): 8 µg/mL (≈ 18.6 µM)

Nc1ccc(-c2ccc3cc(-c4ccc(Nc5ccc(C6=NCCN6)cc5)cc4)[nH]c3c2)cc1 [SKI-20]
Zone Size MRSA (MRSA): 9 mm | Zone Size M. smegmatis (M. smegmatis (mc2155)): 8 mm | MIC [1, 7]: > 64 µg/mL | MIC [1, 8]: 64 µg/mL (≈ 144 µM) | MIC [2, 9]: > 64 µg/mL | MIC [2, 10]: 64 µg/mL (≈ 144 µM) | MIC (S. aureus BAA-39 (MDR); [11]): > 64 µg/mL | MIC (S. aureus BAA-39 (MDR); [12]): 64 µg/mL (≈ 144 µM) | MIC [3, 13]: 2 µg/mL (≈ 4.51 µM) | MIC [3, 14]: 2 µg/mL (≈ 4.51 µM) | MIC [4, 15]: 4 µg/mL (≈ 9.02 µM) | MIC [4, 16]: 4 µg/mL (≈ 9.02 µM) | MIC ([5]; Enterococcus faecalis, Table 1, range 64 down to 0.12 μg/ml, read-out: MIC E. faecalis ATCC 29212): 32 µg/mL (≈ 72.1 µM) | MIC [5, 17]: 32 µg/mL (≈ 72.1 µM) | MIC [6, 18]: 16 µg/mL (≈ 36.1 µM) | MIC [6, 19]: 16 µg/mL (≈ 36.1 µM) | MIC (E. faecium CT-26; [20]): 8 µg/mL (≈ 18 µM) | MIC (E. faecium CT-26; [21]): 8 µg/mL (≈ 18 µM) | MIC (E. coli ECM 1694; [22]): 64 µg/mL (≈ 144 µM) | MIC (E. coli ECM 1694; [23]): 64 µg/mL (≈ 144 µM) | MIC (E. coli ATCC 25922; [24]): 64 µg/mL (≈ 144 µM) | MIC (E. coli ATCC 25922; [25]): > 64 µg/mL | MIC (K. pneumoniae ATCC 13883; [26]): > 64 µg/mL | MIC (K. pneumoniae ATCC 13883; [27]): 64 µg/mL (≈ 144 µM) | MIC (K. pneumoniae ATCC 51503; [28]): > 64 µg/mL | MIC (K. pneumoniae ATCC 51503; [29]): 64 µg/mL (≈ 144 µM) | MIC (P. aeruginosa ATCC 9027; [30]): 64 µg/mL (≈ 144 µM) | MIC (P. aeruginosa ATCC 9027; [31]): > 64 µg/mL | MIC (C. albicans ATCC 14053): > 64 µg/mL
